Columns and labels:
[1] = RNA encapsulation efficacy by Quant-IT Ribogreen kit; assay type: physicochemical
Summary of the method: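 Encapsulation efficacy came from Ribogreen fluorescence of LNPs compared with Triton X-100-lysed LNPs. The particles carried luciferase-encoding circular or linear RNA at an ionizable lipid:ribonucleotide ratio of 15 or 6.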

[2] = tested on: Hep G2 cells; assay: In vitro expression of firefly-luciferase, Hep G2; assay type: cell-based
Summary of the method: (§1)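 Transfection used 100 ng/mL luciferase-encoding RNA-LNPs; activity in lysates was determined at 72 h.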

[3] = tested on: Hep G2 cells; assay: In vitro toxicity (CellTiter-Glo cell viability), Hep G2; assay type: cell-based; conditions: mRNA (SEQ ID NO: 2) LNP, 1 μg/mL, 72 hours post transfection;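 also: percent of untreated cells luminescence signal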
Summary of the method: (§2)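 Luminescent ATP read-out (CellTiter-Glo) gives the viability value, taken 72 h after cells were exposed to RNA-loaded lipid nanoparticles at 1 μg/mL.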

[4] = tested on: RAW 264.7 cells; assay: In vitro expression of firefly-luciferase, RAW 264.7; assay type: cell-based; conditions: mRNA (SEQ ID NO: 2) LNP, 100 ng/mL, 72 hours post transfection, luciferase activity
Summary of the method: as §1

[5] = tested on: BALB/C mice; assay: In vivo expression, whole-body luminescence (IVIS); conditions: mRNA (SEQ ID NO: 2) LNP, 0.05 mg*kg-1 intravenous, 6 hours post injection
Description: 6-8 week old, female BALB/C mice were injected with 0.05 mg*kg-1 of RNA-LNPs encoding for firefly-luciferase by intravenous injection. At 6 hours post injection, animals were intraperitoneally injected with 15 mg/ml of Luciferin substrate and whole-body luminescence was determined by a bioluminescent in vivo imaging system (IVIS).

[6] = LNP size and polydispersity index (PDI) by dynamic light scattering; assay type: physicochemical; conditions: for Size: in nm (unit assumed)
Summary of the method: (§3)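 Dynamic light scattering and zeta potential measurements were run on PBS-dialyzed LNPs, which had been formed by microfluidic mixing at 12 ml/min with final lipid at 1.5 mM to 6 mM. RNA content and percent encapsulation were determined by Ribogreen with and without Triton X-100.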

[7] = LNP zeta potential (Zetasizer); assay type: physicochemical
Summary of the method: as §3

[8] = tested on: RAW 264.7 cells; assay: In vitro toxicity (CellTiter-Glo cell viability), RAW 264.7; assay type: cell-based; conditions: mRNA (SEQ ID NO: 2) LNP, 1 μg/mL, 72 hours post transfection;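 also: percent of untreated cells luminescence signal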
Summary of the method: as §2

[9] = Long term stability analysis / stability under LNP synthesis conditions (Ethanol and PBS pH=7.4); assay type: physicochemical; conditions: after incorporation into lipid nanoparticles / LNP synthesis conditions
Description: The purity of the lipids was tested, after they were incorporated into lipid nanoparticles, only to find that the Reference Lipids were cleaved under LNP synthesis conditions, either via transesterification or hydrolysis.

In the case of `CCCCC/C=C\CCOC(=O)CCCCCCCN(CCCCCCCC(=O)OCC/C=C\CCCCC)CCOC(=O)CCCN(C)C` [Lipid C, reference compound], the “Encapsulation Efficiency %” value ([1]; LNP with cirRNA (SEQ ID NO: 1)) is reported as 74%, the “Encapsulation Efficiency” value ([1]; LNP with mRNA (SEQ ID NO: 2)) is reported as 84.38% and the “In vitro Expression HepG2” value ([2]; cirRNA (SEQ ID NO: 1) LNPs, firefly-luciferase luminescence, Hep G2 cells) is reported as 8.20E+02. For the same molecule, the “In vitro Expression HepG2” value ([2]; mRNA (SEQ ID NO: 2) LNP, 100 ng/mL, 72 hours post transfection, luciferase activity) was 1.03E+04, the “In vitro Viability HepG2” value [3] was 103% and the “In vitro Expression RAW” value [4] was 4.63E+05. For the same molecule, the “In vivo Expression (Whole Body)” value [5] was 4.72E+05, the PDI ([6]; LNP with cirRNA (SEQ ID NO: 1)) was 0.1152 and the Size ([6]; LNP with cirRNA (SEQ ID NO: 1)) was 118.3. The PDI ([6]; LNP with mRNA (SEQ ID NO: 2)) was 0.08023, the Size ([6]; LNP with mRNA (SEQ ID NO: 2)) was 139.5 and the “Zeta (mV)” value ([7]; LNP with cirRNA (SEQ ID NO: 1)) was −1.304 mV. For the same molecule, the “Zeta (mV)” value ([7]; LNP with mRNA (SEQ ID NO: 2)) was 8.776 mV, the “In vitro Viability RAW” value [8] was 88% and the “Stability of the lipid (cleavage, hydrolysis)” value [9] was “extensive hydrolysis of the ester moiety”.
